The supplement of paper PMC11061612

Assays:
Assay in all cases: combination Emax (second highest fraction inhibited in the dose matrix, 72 h); higher = more inhibition; extreme values may be limits of the assay
[1] = test system: NB14 (Neuroblastoma)
Outline: (§1)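 Cell lines in DMEM/F12 or RPMI with 10% FBS were plated in 1536-well plates, held 24 hours at 37°C, 5% CO2, then given two-drug dose matrices for 72 hours (DMSO typically 0.2%). Viability was read by CellTiter-Glo 2.0 luminescence and scaled as inhibition from 0 (vehicle wells) to 1 (blank wells). Combination Emax is the second-highest inhibition in the matrix; Bliss excess is observed combination effect minus expected EA + EB − EA·EB, EA and EB being single-agent effects.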

[2] = test system: NCI-H2461 (Mesothelioma)
Outline: as §1

[3] = test system: MDA-MB-468 (Breast Carcinoma)
Outline: as §1

[4] = test system: CTB-1 (B-Cell Non-Hodgkin's Lymphoma)
Outline: as §1

[5] = test system: HDLM-2 (Hodgkin's Lymphoma)
Outline: as §1

[6] = test system: SW1271 (Small Cell Lung Carcinoma)
Outline: as §1

[7] = test system: SH-4 (Melanoma)
Outline: as §1

[8] = test system: SUP-T1 (T-Lymphoblastic Leukemia)
Outline: as §1

[9] = test system: CAPAN-1 (Pancreatic Carcinoma)
Outline: as §1

[10] = test system: EN (Endometrial Carcinoma)
Outline: as §1

[11] = test system: CAL-54 (Kidney Carcinoma)
Outline: as §1

[12] = test system: KYSE-410 (Esophageal Squamous Cell Carcinoma)
Outline: as §1

[13] = test system: RPMI-6666 (Non-Cancerous)
Outline: as §1

[14] = test system: LB771-HNC (Head and Neck Carcinoma)
Outline: as §1

[15] = test system: HO-1-u-1 (Oral Cavity Carcinoma)
Outline: as §1

[16] = test system: SU-DHL-6 (B-Cell Non-Hodgkin's Lymphoma)
Outline: as §1

[17] = test system: KARPAS-231 (B-Cell Non-Hodgkin's Lymphoma)
Outline: as §1

[18] = test system: NCI-H2795 (Mesothelioma)
Outline: as §1

[19] = test system: UMC-11 (Other Solid Carcinomas)
Outline: as §1

[20] = test system: K5 (Thyroid Gland Carcinoma)
Outline: as §1

Row | SMILES | combination Emax [1] | combination Emax [2] | combination Emax [3] | combination Emax [4] | combination Emax [5] | combination Emax [6] | combination Emax [7] | combination Emax [8] | combination Emax [9] | combination Emax [10] | combination Emax [11] | combination Emax [12] | combination Emax [13] | combination Emax [14] | combination Emax [15] | combination Emax [16] | combination Emax [17] | combination Emax [18] | combination Emax [19] | combination Emax [20]
1 | CN(CCO)CC[C@H](CSc1ccccc1)Nc1ccc(S(=O)(=O)NC(=O)c2ccc(N3CCC([C@@H](O)c4ccccc4-c4ccc(Cl)cc4)CC3)cc2)cc1S(=O)(=O)C(F)(F)F [AZD4320] + Cn1cnc2c(F)c(Nc3ccc(Br)cc3Cl)c(C(=O)NOCCO)cc21 [Selumetinib] (first compound max 1 µM, 7x7, partner max 3 µM) | 1 | 0.328 | 0.789 | 0.591 | 0.847 | 0.534 | 0.955 | 0.872 | 0.802 | 0.29 | 0.311 | 0.391 | 0.992 | 0.255 | 0.465 | 0.974 | 0.977 | 0.827 | 0.467 | 0.679
2 | CCN(CCO)CCCOc1ccc2c(Nc3cc(CC(=O)Nc4cccc(F)c4)[nH]n3)ncnc2c1 [AZD2811] + O=C(c1cc(Cc2n[nH]c(=O)c3ccccc23)ccc1F)N1CCN(C(=O)C2CC2)CC1 [Olaparib] (first compound max 1 µM, 7x7, partner max 10 µM) | 0.889 | 0.278 | 0.413 | 0.515 | 0.258 | 0.17 | 0.265 | 0.528 | 0.338 | 0.434 | 0.223 | 0.165 | 0.625 | 0.201 | 0.274 | 0.365 | 0.576 | 0.395 | 0.75 | 0.329
3 | CN(CCO)CC[C@H](CSc1ccccc1)Nc1ccc(S(=O)(=O)NC(=O)c2ccc(N3CCC([C@@H](O)c4ccccc4-c4ccc(Cl)cc4)CC3)cc2)cc1S(=O)(=O)C(F)(F)F [AZD4320] + C1CN(CCC1(C(=O)N[C@@H](CCO)C2=CC=C(C=C2)Cl)N)C3=NC=NC4=C3C=CN4 [Capivasertib] (first compound max 1 µM, 7x7, partner max 3 µM) | 0.947 | 0.429 | 0.821 | 0.295 | 0.841 | 0.158 | 0.129 | 0.505 | 0.161 | 0.576 | 0.338 | 0.0467 | 0.916 | 0.259 | 0.744 | 1 | 1 | 0.271 | 0.508 | 0.499
4 | CC1(C)CCC(CN2CCN(c3ccc(C(=O)NS(=O)(=O)c4ccc(NCC5CCOCC5)c([N+](=O)[O-])c4)c(Oc4cnc5[nH]ccc5c4)c3)CC2)=C(c2ccc(Cl)cc2)C1 [Venetoclax] + Cc1cc2ncnn2cc1Nc1ncc2c(n1)n(C1CCOCC1)c(=O)n2C [AZD7648] (first compound max 1 µM, 7x7, partner max 10 µM) | 0.974 | 0.528 | 0.397 | 0.358 | 0.431 | 0.202 | 0.279 | 0.602 | 0.195 | 0.49 | 0.256 | 0.23 | 0.959 | 0.271 | 0.305 | 0.853 | 0.808 | 0.471 | 0.414 | 0.394
5 | COc1cccc(OCCCN)c1-c1cc(Nc2cnc(C#N)cn2)n[nH]1 [Prexasertib] + C=CCn1c(=O)c2cnc(Nc3ccc(N4CCN(C)CC4)cc3)nc2n1-c1cccc(C(C)(C)O)n1 [AZD1775] (first compound max 1 µM, partner max 1 µM) | 1 | 0.745 | 0.645 | 0.967 | 0.612 | 0.699 | 0.742 | 0.848 | 0.577 | 0.859 | 0.868 | 0.584 | 0.955 | 0.622 | 0.986 | 0.955 | 0.989 | 0.804 | 0.936 | 0.742
6 | Cc1cc2ncnn2cc1Nc1ncc2c(n1)n(C1CCOCC1)c(=O)n2C [AZD7648] + C=CCn1c(=O)c2cnc(Nc3ccc(N4CCN(C)CC4)cc3)nc2n1-c1cccc(C(C)(C)O)n1 [AZD1775] (first compound max 10 µM, partner max 1 µM) | 0.998 | 0.659 | 0.526 | 0.905 | 0.585 | 0.633 | 0.447 | 0.834 | 0.5 | 0.662 | 0.755 | 0.361 | 0.892 | 0.455 | 0.617 | 0.753 | 0.979 | 0.602 | 0.424 | 0.665
7 | CN(C)CCCOc1ccc(-c2ccc3ncc4c(c3c2)n(C2CCOCC2)c(=O)n4C)cn1 [AZD0156] + C[C@@H]1COCCN1C2=NC(=NC(=C2)C3(CC3)[S@](=N)(=O)C)C4=C5C=CNC5=NC=C4 [AZD6738] (first compound max 1 µM, 7x7, partner max 10 µM) | 0.979 | 0.71 | 0.527 | 0.829 | 0.376 | 0.595 | 0.465 | 0.78 | 0.368 | 0.581 | 0.65 | 0.297 | 0.861 | 0.48 | 0.943 | 0.629 | 0.904 | 0.7 | 0.642 | 0.753
8 | CN(C)CCCOc1ccc(-c2ccc3ncc4c(c3c2)n(C2CCOCC2)c(=O)n4C)cn1 [AZD0156] + C=CCn1c(=O)c2cnc(Nc3ccc(N4CCN(C)CC4)cc3)nc2n1-c1cccc(C(C)(C)O)n1 [AZD1775] (first compound max 1 µM, partner max 1 µM) | 1 | 0.674 | 0.42 | 0.898 | 0.721 | 0.476 | 0.564 | 0.872 | 0.394 | 0.512 | 0.642 | 0.32 | 0.923 | 0.557 | 0.77 | 0.699 | 0.988 | 0.512 | 0.377 | 0.424
9 | COc1cccc(OCCCN)c1-c1cc(Nc2cnc(C#N)cn2)n[nH]1 [Prexasertib] + O=C(c1cc(Cc2n[nH]c(=O)c3ccccc23)ccc1F)N1CCN(C(=O)C2CC2)CC1 [Olaparib] (first compound max 1 µM, 7x7, partner max 10 µM) | 0.986 | 0.652 | 0.603 | 0.876 | 0.626 | 0.686 | 0.611 | 0.79 | 0.595 | 0.726 | 0.792 | 0.382 | 0.959 | 0.568 | 0.936 | 0.653 | 0.974 | 0.674 | 0.902 | 0.634
10 | CC1(C)CCC(CN2CCN(c3ccc(C(=O)NS(=O)(=O)c4ccc(NCC5CCOCC5)c([N+](=O)[O-])c4)c(Oc4cnc5[nH]ccc5c4)c3)CC2)=C(c2ccc(Cl)cc2)C1 [Venetoclax] + C[C@@H]1COCCN1C2=NC(=NC(=C2)C3(CC3)[S@](=N)(=O)C)C4=C5C=CNC5=NC=C4 [AZD6738] (first compound max 1 µM, 7x7, partner max 10 µM) | 1 | 0.725 | 0.624 | 0.836 | 0.683 | 0.612 | 0.304 | 0.821 | 0.416 | 0.64 | 0.768 | 0.372 | 0.971 | 0.474 | 0.853 | 0.92 | 1 | 0.622 | 0.619 | 0.616
11 | Cc1cc2ncnn2cc1Nc1ncc2c(n1)n(C1CCOCC1)c(=O)n2C [AZD7648] + C[C@@H]1COCCN1C2=NC(=NC(=C2)C3(CC3)[S@](=N)(=O)C)C4=C5C=CNC5=NC=C4 [AZD6738] (first compound max 10 µM, 7x7, partner max 10 µM) | 0.99 | 0.71 | 0.513 | 0.802 | 0.373 | 0.674 | 0.335 | 0.744 | 0.495 | 0.62 | 0.769 | 0.363 | 0.797 | 0.464 | 0.845 | 0.613 | 0.837 | 0.609 | 0.537 | 0.665
12 | COc1cccc(OCCCN)c1-c1cc(Nc2cnc(C#N)cn2)n[nH]1 [Prexasertib] + CCc1c2c(nc3ccc(O)cc13)-c1cc3c(c(=O)n1C2)COC(=O)[C@]3(O)CC [SN-38] (first compound max 1 µM, 7x7, partner max 0.3 µM) | 1 | 0.705 | 0.817 | 0.934 | 0.676 | 0.769 | 0.684 | 0.819 | 0.809 | 0.75 | 0.855 | 0.705 | 0.976 | 0.647 | 0.996 | 0.991 | 1 | 0.813 | 0.959 | 0.628
